Data set [1] relates to DNA. The data set can be described thus: Inhibition of RpoN-mediated GlnAp2 transcription in Escherichia coli XL-1 Blue expressing GFP assessed as decrease in GFP levels at 10 uM incubated for 4 hrs under minimal nitrogen media by fluorescence based assay relative to control. The format is nucleic-acid assay.
For data set [2], the target named is dsDNA. The data set can be described thus: Binding affinity to FITC-labelled dsDNA (unknown origin) assessed as dissociation constant incubated for 10 mins by fluorescence polarization assay. Format: nucleic-acid assay. (In fluorescence polarisation assays a small probe gives low polarisation when free and higher when bound to something large.)
The nature of data set [3]: Hemolytic activity in human RBC at 100 uM measured after 1 hrs relative to control. Format: toxicity, cell-based, Erythrocyte. The settings on record: red blood cells (erythrocytes), read-out: Activity.
Data set [4] can be described thus: Toxicity in Galleria mellonella larvae assessed as survivability at 10 mg/kg administered intra-hemocoelicly and measured after 24 hrs. The format is organism-based. The settings on record: in vivo, other.
Data set [5] deals with Pseudomonas aeruginosa. The data set is described as follows: Antibacterial activity against Pseudomonas aeruginosa infected in Galleria mellonella larvae assessed as enhancement of survival rate at 10 mg/kg administered intra-hemocoelicly and measured after 24 hrs relative to control. The format is functional.
The test system of data set [6] is Pseudomonas aeruginosa. The data set can be described thus: Antibacterial activity against Pseudomonas aeruginosa assessed as inhibition of cell growth upto 32 ug/ml incubated overnight by microtiter broth dilution assay. Format: functional. The settings on record: dose <= 32 µg/ml. For orientation: In broth dilution the organism is exposed to a series of concentrations in liquid medium.

Data set [7] concerns Pseudomonas aeruginosa. The data set is described as follows: Antibacterial activity against Pseudomonas aeruginosa infected in Galleria mellonella larvae assessed as enhancement of survival rate at 10 mg/kg administered intra-hemocoelicly and measured after 36 hrs relative to control. Format: functional.

Activity calls are given as the source filed them. Numbered stars: 1 amine (or outer) side, 2 acyl side, 3 side chain; on linkers, the order of the positions; unused ones are H or OH. Bridge positions count the residues as written; N and C are the ends. Square brackets hold non-standard residues; d marks the D form. Peptide text beside a SMILES is read from it. X1 = CC(C)[C@@H](CN[*:1])C(=O)[*:2]; S5 = C=CCCC[C@](C)(N)C(=O)O; Nle = CCCC[C@H](N)C(=O)O; Orn = NCCC[C@H](N)C(=O)O; βAla = NCCC(=O)O

On to `CCCC[C@H](NC(=O)[C@H](CCC(=O)O)NC(=O)[C@H](CCCNC(=N)N)NC(=O)[C@H](Cc1ccc(O)cc1)NC(=O)[C@H](CCCCN)NC(=O)[C@H](C)NC(=O)[C@]1(C)CCC/C=C\CCC[C@](C)(NC(=O)[C@H](CNC(=O)[C@H](CCCCN)NC(=O)[C@H](Cc2ccccc2)NC(=O)CCNC(C)=O)C(C)C)C(=O)N[C@@H](CCCNC(=N)N)C(=O)N[C@@H](CCCNC(=N)N)C(=O)N[C@@H]([C@@H](C)O)C(=O)N1)C(N)=O` (Ac-[βAla]FK[X1][S5]RRT[S5]AKYRE[Nle]-NH2; staple (Z) 5-9), for which the inhibition entry in data set [1] is “Active”. Also, the Kd in data set [2] came out at 0.385 µM. For the same molecule, the hemolysis at 1 h, 100 µM in data set [3] came out at 35%. For the same molecule, the Activity result in data set [4] is on record as “Non-Toxic”. For the same molecule, in data set [5], the outcome was Active. The MIC in data set [6] is greater than 32 mg/L.
Turning to `CCCC[C@H](NC(=O)[C@H](CCC(=O)O)NC(=O)[C@H](CCCNC(=N)N)NC(=O)[C@H](Cc1ccc(O)cc1)NC(=O)[C@H](CCCCN)NC(=O)[C@H](C)NC(=O)[C@]1(C)CCC/C=C\CCC[C@](C)(NC(=O)[C@H](C)NC(=O)[C@H](CCCCN)NC(=O)[C@H](Cc2ccccc2)NC(=O)CCNC(C)=O)C(=O)N[C@@H](CCCNC(=N)N)C(=O)N[C@@H](CCCNC(=N)N)C(=O)N[C@@H]([C@@H](C)O)C(=O)N1)C(=O)N[C@@H](CC(C)C)C(N)=O` (Ac-[βAla]FKA[S5]RRT[S5]AKYRE[Nle]L-NH2; staple (Z) 5-9), the inhibition entry in data set [1] is “Active”.
On to `CCCC[C@H](NC(=O)[C@H](CCC(=O)O)NC(=O)[C@H](CCCNC(=N)N)NC(=O)[C@H](Cc1ccc(O)cc1)NC(=O)[C@H](CCCCN)NC(=O)[C@H](C)NC(=O)[C@]1(C)CCC/C=C\CCC[C@](C)(NC(=O)[C@@H](NC(=O)[C@H](CCCCN)NC(=O)[C@H](Cc2ccccc2)NC(=O)CCNC(C)=O)C(C)C)C(=O)N[C@@H](CCCNC(=N)N)C(=O)N[C@@H](CCCCN)C(=O)N[C@@H]([C@@H](C)O)C(=O)N1)C(=O)N[C@@H](CC(C)C)C(N)=O` (Ac-[βAla]FKV[S5]RKT[S5]AKYRE[Nle]L-NH2; staple (Z) 5-9), for which the inhibition result in data set [1] was “Active”. The Kd in data set [2] was 0.947 µM. Further, the hemolysis at 1 h, 100 µM in data set [3] turned out to be 3.3%. Besides, in data set [6], the minimal inhibitory concentration (MIC) was greater than 32 mg/L.
As for `CCCC[C@H](NC(=O)[C@H](CCC(=O)O)NC(=O)[C@H](CCCNC(=N)N)NC(=O)[C@H](Cc1ccc(O)cc1)NC(=O)[C@H](CCCCN)NC(=O)CNC(=O)[C@]1(C)CCC/C=C\CCC[C@](C)(NC(=O)[C@@H](NC(=O)[C@H](CCCCN)NC(=O)[C@H](Cc2ccccc2)NC(=O)CCNC(C)=O)C(C)C)C(=O)N[C@@H](CCCNC(=N)N)C(=O)N[C@@H](CCCNC(=N)N)C(=O)N[C@@H]([C@@H](C)O)C(=O)N1)C(=O)N[C@@H](CC(C)C)C(N)=O` (Ac-[βAla]FKV[S5]RRT[S5]GKYRE[Nle]L-NH2; staple (Z) 5-9), the inhibition result in data set [1] is “Active”. Further, the Kd in data set [2] came out at 0.376 µM. The hemolysis at 1 h, 100 µM in data set [3] turned out to be 0.53%. In addition, the Activity entry in data set [4] is on record as “Non-Toxic”; in data set [5], 80%; in data set [7] it was 10%. Also, the MIC in data set [6] is greater than 32 mg/L.
`CCCC[C@H](NC(=O)[C@H](CCC(=O)O)NC(=O)[C@H](CCCNC(=N)N)NC(=O)[C@]1(C)CCC/C=C\CCC[C@](C)(NC(=O)[C@H](CCCNC(=N)N)NC(=O)[C@H](CCCNC(=N)N)NC(=O)[C@H](C)NC(=O)[C@@H](NC(=O)[C@H](CCCCN)NC(=O)[C@H](Cc2ccccc2)NC(=O)CCNC(C)=O)C(C)C)C(=O)N[C@@H](C(C)C)C(=O)N[C@@H](C)C(=O)N[C@@H](CCCCN)C(=O)N1)C(=O)N[C@@H](CC(C)C)C(N)=O` (Ac-[βAla]FKVARR[S5]VAK[S5]RE[Nle]L-NH2; staple (Z) 8-12): in data set [1], the inhibition result is “Active”. Also, the Kd in data set [2] was 0.366 µM. The hemolysis at 1 h, 100 µM in data set [3] came out at 10.7%. Moreover, the Activity result in data set [4] is “Non-Toxic”. For the same molecule, in data set [5], the result was Active. Also, in data set [6], the MIC is greater than 32 mg/L.
Regarding `CCCC[C@H](NC(=O)[C@H](CCC(=O)O)NC(=O)[C@H](CCCNC(=N)N)NC(=O)[C@H](Cc1ccc(O)cc1)NC(=O)[C@H](CCCCN)NC(=O)[C@H](C)NC(=O)[C@@H](NC(=O)[C@@H](NC(=O)[C@H](CCCNC(=N)N)NC(=O)[C@H](CCCNC(=N)N)NC(=O)[C@H](C)NC(=O)[C@@H](NC(=O)[C@H](CCCCN)NC(=O)[C@H](Cc1ccccc1)NC(=O)CCNC(C)=O)C(C)C)[C@@H](C)O)C(C)C)C(=O)N[C@@H](CC(C)C)C(N)=O` (Ac-[βAla]FKVARRTVAKYRE[Nle]L-NH2), the hemolysis at 1 h, 100 µM in data set [3] stood at 0.12%.
Consider `CCCC[C@H](NC(=O)[C@H](CCC(=O)O)NC(=O)[C@H](CCCNC(=N)N)NC(=O)[C@H](Cc1ccc(O)cc1)NC(=O)[C@H](CCCCN)NC(=O)[C@H](C)NC(=O)[C@]1(C)CCC/C=C\CCC[C@](C)(NC(=O)[C@@H](NC(=O)[C@H](CCCCN)NC(=O)[C@H](Cc2ccccc2)NC(=O)CCNC(C)=O)C(C)C)C(=O)N[C@@H](CCCCN)C(=O)N[C@@H](CCCNC(=N)N)C(=O)N[C@@H]([C@@H](C)O)C(=O)N1)C(=O)N[C@@H](CC(C)C)C(N)=O` (Ac-[βAla]FKV[S5]KRT[S5]AKYRE[Nle]L-NH2; staple (Z) 5-9), for which, in data set [1], the inhibition entry is “Active”. In data set [2], the Kd turned out to be 1.68 µM. Also, in data set [3], the hemolysis at 1 h, 100 µM came to 3.3%. In addition, the minimum inhibitory concentration (MIC) in data set [6] is greater than 32 mg/L.
In the case of `CCCC[C@H](NC(=O)[C@H](CCC(=O)O)NC(=O)[C@H](CCCNC(=N)N)NC(=O)[C@H](Cc1ccc(O)cc1)NC(=O)[C@H](CCCCN)NC(=O)[C@H](C)NC(=O)[C@]1(C)CCC/C=C\CCC[C@](C)(NC(=O)[C@H](Cc2ccccc2)NC(=O)[C@H](CCCCN)NC(=O)[C@H](Cc2ccccc2)NC(=O)CCNC(C)=O)C(=O)N[C@@H](CCCNC(=N)N)C(=O)N[C@@H](CCCNC(=N)N)C(=O)N[C@@H]([C@@H](C)O)C(=O)N1)C(=O)N[C@@H](CC(C)C)C(N)=O` (Ac-[βAla]FKF[S5]RRT[S5]AKYRE[Nle]L-NH2; staple (Z) 5-9), the inhibition result in data set [1] was “Active”.
The same measure, in the same setting: in the case of `CCCC[C@H](NC(=O)[C@H](CCC(=O)O)NC(=O)[C@H](CCCNC(=N)N)NC(=O)[C@@H](Cc1ccc(O)cc1)NC(=O)[C@H](CCCCN)NC(=O)[C@H](C)NC(=O)[C@]1(C)CCC/C=C\CCC[C@](C)(NC(=O)[C@@H](NC(=O)[C@H](CCCCN)NC(=O)CCNC(C)=O)C(C)C)C(=O)N[C@@H](CCCNC(=N)N)C(=O)N[C@@H](CCCNC(=N)N)C(=O)N[C@@H]([C@@H](C)O)C(=O)N1)C(=O)N[C@@H](CC(C)C)C(N)=O` it was “Active”.
As to `CCCC[C@H](NC(=O)[C@H](CCC(=O)O)NC(=O)[C@H](CCCNC(=N)N)NC(=O)[C@H](Cc1ccc(O)cc1)NC(=O)[C@H](CCCCN)NC(=O)[C@H](C)NC(=O)[C@]1(C)CCC/C=C\CCC[C@](C)(NC(=O)[C@@H](NC(=O)[C@H](CCCNC(=N)N)NC(=O)[C@H](Cc2ccccc2)NC(=O)CCNC(C)=O)C(C)C)C(=O)N[C@@H](CCCNC(=N)N)C(=O)N[C@@H](CCCNC(=N)N)C(=O)N[C@@H]([C@@H](C)O)C(=O)N1)C(=O)N[C@@H](CC(C)C)C(N)=O` (Ac-[βAla]FRV[S5]RRT[S5]AKYRE[Nle]L-NH2; staple (Z) 5-9), in data set [1], the inhibition entry is “Active”. Further, the Kd in data set [2] is 0.346 µM. Further, in data set [3], the hemolysis at 1 h, 100 µM was determined as 1.5%. In addition, the Activity result in data set [4] is reported as “Non-Toxic”; in data set [5] it was 80%; in data set [7], 20%. Also, in data set [6], the MIC is greater than 32 mg/L.
Regarding `CCCC[C@H](NC(=O)[C@H](CCC(=O)O)NC(=O)[C@H](CCCNC(=N)N)NC(=O)[C@H](Cc1ccc(O)cc1)NC(=O)[C@H](CCCCN)NC(=O)[C@@H](NC(=O)[C@]1(C)CCC/C=C\CCC[C@](C)(NC(=O)[C@H](C)NC(=O)[C@H](CCCCN)NC(=O)[C@H](Cc2ccccc2)NC(=O)CCNC(C)=O)C(=O)N[C@@H](CCCNC(=N)N)C(=O)N[C@@H](CCCNC(=N)N)C(=O)N[C@@H]([C@@H](C)O)C(=O)N1)C(C)C)C(=O)N[C@@H](CC(C)C)C(N)=O` (Ac-[βAla]FKA[S5]RRT[S5]VKYRE[Nle]L-NH2; staple (Z) 5-9), the inhibition entry in data set [1] was “Active”.
Same read-out and setting: next, `CCCC[C@H](NC(=O)[C@H](CCC(=O)O)NC(=O)[C@H](CCCNC(=N)N)NC(=O)[C@H](Cc1ccc(O)cc1)NC(=O)[C@H](CCCCN)NC(=O)[C@H](C)NC(=O)[C@]1(C)CCC/C=C\CCC[C@](C)(NC(=O)[C@@H](NC(=O)[C@H](CCCN)NC(=O)[C@H](Cc2ccccc2)NC(=O)CCNC(C)=O)C(C)C)C(=O)N[C@@H](CCCNC(=N)N)C(=O)N[C@@H](CCCNC(=N)N)C(=O)N[C@@H]([C@@H](C)O)C(=O)N1)C(=O)N[C@@H](CC(C)C)C(N)=O` (Ac-[βAla]F[Orn]V[S5]RRT[S5]AKYRE[Nle]L-NH2; staple (Z) 5-9): “Active”; `CCCC[C@H](NC(=O)[C@H](CCC(=O)O)NC(=O)[C@H](CCCNC(=N)N)NC(=O)[C@H](Cc1ccc(O)cc1)NC(=O)[C@H](CCCNC(=N)N)NC(=O)[C@H](C)NC(=O)[C@]1(C)CCC/C=C\CCC[C@](C)(NC(=O)[C@@H](NC(=O)[C@H](CCCCN)NC(=O)[C@H](Cc2ccccc2)NC(=O)CCNC(C)=O)C(C)C)C(=O)N[C@@H](CCCNC(=N)N)C(=O)N[C@@H](CCCNC(=N)N)C(=O)N[C@@H]([C@@H](C)O)C(=O)N1)C(=O)N[C@@H](CC(C)C)C(N)=O` (Ac-[βAla]FKV[S5]RRT[S5]ARYRE[Nle]L-NH2; staple (Z) 5-9): “Active”.

In general, Kd refers to the free concentration of one partner at which half of the binding sites on the other are occupied at equilibrium, for simple one-to-one binding. As usually defined, the MIC is the smallest concentration in the dilution series that meets the test's criterion for growth inhibition.

The values are drawn from ChEMBL document CHEMBL5107971, “RpoN-Based stapled peptides with improved DNA binding suppress Pseudomonas aeruginosa virulence” (RSC Med Chem, 2022).
